# Measured values: publication PMC7179958 (CPT: Pharmacometrics & Systems Pharmacology, 2020)
# Legend:
# [1] = test system: UDP‐glucuronosyltransferase (UGT)1A3 and 2B7 and cytochrome P450 (CYP)2C9; details: inhibition by eltrombopag of UGT1A3, 2B7 and CYP2C9 (exception CYP1B1); cited from earlier work
# [2] = test system: human hepatocytes; experiment: Uptake of pitavastatin and eltrombopag in cryopreserved human hepatocytes (oil spin method), comeasurement, micro‐rate constant mechanistic model; format: in vitro ADME
# Description: Human hepatocytes were obtained from BioIVT (Brussels, Belgium; lot number: LYB; 10 donor LiverPool (8 Caucasians, 1 African American, and 1 Hispanic) and thawed according to supplier guidelines in Leibovitz L15 medium. Hepatocytes were kept on ice prior to use and were used within 3 hours of defrosting.
# Cells were separated using an oil spin method similar to the literature. ^11 , ^17 After separation, the tubes were frozen on dry ice and the bottom layer was cut off.
# A dilution factor of 100 was used to scale from pmol/mL/1 × 10^5 cells to nmol/mL/1 × 10^6 cells.
# Passive rate constants for movement into and out of the cell (k f.X and k bX, respectively) as well as uptake transporter‐mediated rate constants for association to the transporter (k aX) and dissociation (k dX) and translocation (k tX) from the transporter into the medium and cell, respectively. […] The sets of ODEs for all the models (models 1–4; Table 1 ) tested for structural identifiability and used for parameter estimation are included in the Supplemental Material .
# Parameter estimation was conducted within Monolix 2018 R2 (Lixoft, Antony, France) for each concentration and experiment as an individual data set, where to ensure positivity, a log‐normal distribution was assumed for each parameter, with a proportional residual error model for the observations.
# Hepatocyte Incubations. […] Eltrombopag was dissolved in DMSO to give 30 µmol/mL, then diluted 333-fold to 90 nmol/mL in Leibovitz L15 medium. […] Briefly, 0.5 mL microtubes (12049877, Thermo-Fisher Scientific, Gothenburg, Sweden) layered with 15 µL of 4 % cesium chloride onto which 140 µL of 8:2 silicone oil: mineral oil, with oil red O was added. Samples were taken by transferring 100 µL of hepatocyte suspension into the microtube and spun for 15 s in a Minispin centrifuge (Eppendorf, Horsholm, Denmark), during which time the hepatocytes passed through the oil into the cesium chloride bottom layer. The tubes were then frozen on dry ice and the bottom layer cut off once frozen into a 1 mL deep well plate (260252, Thermo-Fisher Scientific, Gothenburg, Sweden).
# Sample Extraction. 50 µL of water suitable for UPLC (MilliQ ELGA water, Merck-Millipore, Solna, Sweden) and 150 µL of stop solution (50:50 MeOH:MeCN, containing 0.8 % formic acid and 4 pmol/mL 5,5-diethyl-1,3-diphenyl-2-iminobarbituric acid as internal standard) were added to the frozen samples of the cut-off tube bottoms. Samples were mixed on a plate shaker for 1 h and then stored at – 80 °C overnight. Prior to analysis, samples were defrosted and mixed for 30 min before centrifugation of the plates at 4000 g for 20 min at 4 °C. Samples were transferred to a conical bottomed 96 well plate for analysis (249944, Thermo-Fisher Scientific, Gothenburg, Sweden) and diluted 1:1 with MilliQ ELGA water.
# Mechanistic Modeling. […] An estimate for the total amount of transporters (To) can be obtained during the mechanistic modeling process (9, 10), and therefore Tf can be replaced using the conservation law during parameter estimation:
# Parameter estimation for all model were conducted within the Monolix suite 2018 R2 (Lixoft, Antony, France) where to ensure positivity, a log-normal distribution was assumed for each parameter in the candidate models, together with a proportional residual error model for the observations.
# [3] = set-up: method as in earlier work; details: eltrombopag; minimum value of FDA draft guidance when plasma protein binding ≥ 0.99; cited from earlier work
# [4] = Fraction unbound in hepatocytes, Rapid Equilibrium Dialysis (RED) device; format: in vitro ADME; details: human, heat inactivated hepatocytes, RED device
# Description: Fraction Unbound in Hepatocytes. The estimation of the fraction unbound in hepatocytes at equilibrium can be obtained using multiple techniques: heat inactivated hepatocytes (3); linear regression obtained using the logD7.4 (4); parameter estimation (1, 3, 5, 6) or as separate binding rate constants determined experimentally (7). […] The RED device works with low volumes across a medium chamber (500 µL, white) and incubation chamber containing the hepatocytes (300 µL, red), and as such has been reported to even out the non-specific binding (NSB) between the membrane and wells, thereby improving recovery (8). The free fraction in the incubation (fu.inc) is calculated as:
# fu.inc= [medium chamber] Whiteincubation chamber(Red) . (Eq.S1)
# The amount of non-specific binding (NSB) to the labware is important to understand the recovery from the RED device experiment to evaluate the reliability of fu.inc: […]
# [5] = model 1, conditional mode (minimum‐maximum) for 1 × 10^6 cells
# [6] = model 1 micro‐rate constants, conditional mode (minimum‐maximum) for 1 × 10^6 cells
structure (smiles),measurement,setting,value
"CC1=NN(c2ccc(C)c(C)c2)C(=O)/C1=N\Nc1cccc(-c2cccc(C(=O)O)c2)c1O [eltrombopag, Eltrombopag]",IC50,[1],2 to 20 µM
same,effect on transporter‐mediated uptake of pitavastatin,"[2]; 30 nmol/mL eltrombopag, 15 minute preincubation, overcome at 10–100 nmol/mL pitavastatin",reduced
same,"F T.X, fraction transported","[2]; CLup.X/(CLup.X+Pdif.X), Eq. 4",0.12 (0.09–0.2)
same,DV = amount of measured pitavastatin and/or eltrombopag,"[2]; ID 29, pitavastatin AMT 10 nmol at TIME 15, TIME 15.5 min (normalised to post eltrombopag incubation)",1035.93 nmol
same,DV = amount of measured pitavastatin and/or eltrombopag,"[2]; ID 29, pitavastatin AMT 10 nmol at TIME 15, TIME 16 min",1126.83 nmol
same,DV = amount of measured pitavastatin and/or eltrombopag,"[2]; ID 29, pitavastatin AMT 10 nmol at TIME 15, TIME 17 min",1088.94 nmol
same,DV = amount of measured pitavastatin and/or eltrombopag,"[2]; ID 29, pitavastatin AMT 10 nmol at TIME 15, TIME 20 min",1007.88 nmol
same,DV = amount of measured pitavastatin and/or eltrombopag,"[2]; ID 29, pitavastatin AMT 10 nmol at TIME 15, TIME 25 min",1166.93 nmol
same,DV = amount of measured pitavastatin and/or eltrombopag,"[2]; ID 29, pitavastatin AMT 10 nmol at TIME 15, TIME 45 min",1002.58 nmol
same,DV = amount of measured pitavastatin and/or eltrombopag,"[2]; ID 30, pitavastatin AMT 10 nmol at TIME 15, TIME 15.25 min",729.81 nmol
same,DV = amount of measured pitavastatin and/or eltrombopag,"[2]; ID 30, pitavastatin AMT 10 nmol at TIME 15, TIME 15.5 min",682.02 nmol
same,DV = amount of measured pitavastatin and/or eltrombopag,"[2]; ID 30, pitavastatin AMT 10 nmol at TIME 15, TIME 16 min",633.62 nmol
same,DV = amount of measured pitavastatin and/or eltrombopag,"[2]; ID 30, pitavastatin AMT 10 nmol at TIME 15, TIME 17 min",618.74 nmol
same,DV = amount of measured pitavastatin and/or eltrombopag,"[2]; ID 30, pitavastatin AMT 10 nmol at TIME 15, TIME 20 min",608.21 nmol
same,DV = amount of measured pitavastatin and/or eltrombopag,"[2]; ID 30, pitavastatin AMT 10 nmol at TIME 15, TIME 25 min",683.69 nmol
same,DV = amount of measured pitavastatin and/or eltrombopag,"[2]; ID 30, pitavastatin AMT 10 nmol at TIME 15, TIME 45 min",599.94 nmol
same,DV = amount of measured pitavastatin and/or eltrombopag,"[2]; ID 31, pitavastatin AMT 30 nmol at TIME 15, TIME 15.25 min",1382.52 nmol
same,DV = amount of measured pitavastatin and/or eltrombopag,"[2]; ID 31, pitavastatin AMT 30 nmol at TIME 15, TIME 15.5 min",1329.86 nmol
same,DV = amount of measured pitavastatin and/or eltrombopag,"[2]; ID 31, pitavastatin AMT 30 nmol at TIME 15, TIME 16 min",1156.33 nmol
same,DV = amount of measured pitavastatin and/or eltrombopag,"[2]; ID 31, pitavastatin AMT 30 nmol at TIME 15, TIME 17 min",1204.59 nmol
same,DV = amount of measured pitavastatin and/or eltrombopag,"[2]; ID 31, pitavastatin AMT 30 nmol at TIME 15, TIME 20 min",1196.1 nmol
same,DV = amount of measured pitavastatin and/or eltrombopag,"[2]; ID 31, pitavastatin AMT 30 nmol at TIME 15, TIME 25 min",890.75 nmol
same,DV = amount of measured pitavastatin and/or eltrombopag,"[2]; ID 31, pitavastatin AMT 30 nmol at TIME 15, TIME 45 min",983.35 nmol
same,DV = amount of measured pitavastatin and/or eltrombopag,"[2]; ID 32, pitavastatin AMT 30 nmol at TIME 15, TIME 15.25 min",1189.57 nmol
same,DV = amount of measured pitavastatin and/or eltrombopag,"[2]; ID 32, pitavastatin AMT 30 nmol at TIME 15, TIME 15.5 min",1153.93 nmol
same,DV = amount of measured pitavastatin and/or eltrombopag,"[2]; ID 32, pitavastatin AMT 30 nmol at TIME 15, TIME 16 min",1218.64 nmol
same,DV = amount of measured pitavastatin and/or eltrombopag,"[2]; ID 32, pitavastatin AMT 30 nmol at TIME 15, TIME 17 min",1146.32 nmol
same,DV = amount of measured pitavastatin and/or eltrombopag,"[2]; ID 32, pitavastatin AMT 30 nmol at TIME 15, TIME 20 min",1061.43 nmol
same,DV = amount of measured pitavastatin and/or eltrombopag,"[2]; ID 32, pitavastatin AMT 30 nmol at TIME 15, TIME 25 min",1010.46 nmol
same,DV = amount of measured pitavastatin and/or eltrombopag,"[2]; ID 32, pitavastatin AMT 30 nmol at TIME 15, TIME 45 min",1102.17 nmol
same,DV = amount of measured pitavastatin and/or eltrombopag,"[2]; ID 33, pitavastatin AMT 30 nmol at TIME 15, TIME 15.25 min",668.8 nmol
same,DV = amount of measured pitavastatin and/or eltrombopag,"[2]; ID 33, pitavastatin AMT 30 nmol at TIME 15, TIME 15.5 min",715.76 nmol
same,DV = amount of measured pitavastatin and/or eltrombopag,"[2]; ID 33, pitavastatin AMT 30 nmol at TIME 15, TIME 16 min",633.41 nmol
same,DV = amount of measured pitavastatin and/or eltrombopag,"[2]; ID 33, pitavastatin AMT 30 nmol at TIME 15, TIME 17 min",623.34 nmol
same,DV = amount of measured pitavastatin and/or eltrombopag,"[2]; ID 33, pitavastatin AMT 30 nmol at TIME 15, TIME 20 min",652.6 nmol
same,DV = amount of measured pitavastatin and/or eltrombopag,"[2]; ID 33, pitavastatin AMT 30 nmol at TIME 15, TIME 25 min",543.53 nmol
same,DV = amount of measured pitavastatin and/or eltrombopag,"[2]; ID 33, pitavastatin AMT 30 nmol at TIME 15, TIME 45 min",574.79 nmol
same,DV = amount of measured pitavastatin and/or eltrombopag,"[2]; ID 34, pitavastatin AMT 100 nmol at TIME 15, TIME 15.25 min",1383.49 nmol
same,DV = amount of measured pitavastatin and/or eltrombopag,"[2]; ID 34, pitavastatin AMT 100 nmol at TIME 15, TIME 15.5 min",1026.05 nmol
same,DV = amount of measured pitavastatin and/or eltrombopag,"[2]; ID 34, pitavastatin AMT 100 nmol at TIME 15, TIME 16 min",1256.06 nmol
same,DV = amount of measured pitavastatin and/or eltrombopag,"[2]; ID 34, pitavastatin AMT 100 nmol at TIME 15, TIME 17 min",1131.42 nmol
same,DV = amount of measured pitavastatin and/or eltrombopag,"[2]; ID 34, pitavastatin AMT 100 nmol at TIME 15, TIME 20 min",983.13 nmol
same,DV = amount of measured pitavastatin and/or eltrombopag,"[2]; ID 34, pitavastatin AMT 100 nmol at TIME 15, TIME 25 min",1130.84 nmol
same,DV = amount of measured pitavastatin and/or eltrombopag,"[2]; ID 34, pitavastatin AMT 100 nmol at TIME 15, TIME 45 min",1000.32 nmol
same,DV = amount of measured pitavastatin and/or eltrombopag,"[2]; ID 36, pitavastatin AMT 100 nmol at TIME 15, TIME 15.25 min",470.72 nmol
same,DV = amount of measured pitavastatin and/or eltrombopag,"[2]; ID 36, pitavastatin AMT 100 nmol at TIME 15, TIME 15.5 min",453.1 nmol
same,DV = amount of measured pitavastatin and/or eltrombopag,"[2]; ID 36, pitavastatin AMT 100 nmol at TIME 15, TIME 16 min",430.66 nmol
same,DV = amount of measured pitavastatin and/or eltrombopag,"[2]; ID 36, pitavastatin AMT 100 nmol at TIME 15, TIME 17 min",384.81 nmol
same,DV = amount of measured pitavastatin and/or eltrombopag,"[2]; ID 36, pitavastatin AMT 100 nmol at TIME 15, TIME 20 min",459.69 nmol
same,DV = amount of measured pitavastatin and/or eltrombopag,"[2]; ID 36, pitavastatin AMT 100 nmol at TIME 15, TIME 25 min",410.46 nmol
same,DV = amount of measured pitavastatin and/or eltrombopag,"[2]; ID 36, pitavastatin AMT 100 nmol at TIME 15, TIME 45 min",416.81 nmol
same,transporter‐mediated clearance (V max.up.E.WB/K m.up.E.WB),"[2]; eltrombopag, whole body scaled",1625 mL/min/liver
same,K m.up.X or K I.up.X,"[2]; from micro‐rate constants, Eq. 7","3,138 ng/mL"
same,passive efflux clearance out of the cell,[2]; k bX scaled to a clearance,1.3 (1.05–1.95) µL/min/1 × 10^6 cells
same,P dif.X,[2]; k fX scaled to a clearance,52 (40–64) µL/min/1 × 10^6 cells
same,"k bX, passive rate constant out of the cell",[2]; [5],0.43 (0.35–0.65) /min
same,"k fX, passive rate constant into the cell",[2]; [5],0.05 (0.04–0.06) /min
same,"k aX, transporter association rate constant",[2]; [6],0.26 (0.23–0.31) /nmol/min
same,"k dX, transporter dissociation rate constant",[2]; [6],1.57 (1.42–2) /min
same,"k tX, transporter translocation rate constant",[2]; [6],0.27 (0.24–0.32) /min
same,"V max.up..X, maximum uptake velocity","[2]; scaled to whole liver, Eq. 6",5.1 × 10^6 ng/min/liver
same,"P def.X, passive diffusion out of the cell","[2]; scaled to whole liver, Eq. 9",307 mL/min/liver
same,V max.up,"[2]; transporter rate constants transformed, Eq. 6",49 (28–116) pmol/min/1 × 10^6 cells
same,"f u.pl, fraction unbound in the plasma set for static R value",[3],0.01
same,fraction unbound,"[4]; overnight, pitavastatin 0.3, 10 and 100 nmol/ml, eltrombopag 30 nmol/ml, read-out: f u.inc, fraction unbound in the incubation",0.04
same,recovery,[4]; read-out: analytical recovery,10%
